Assay results as given in ChEMBL document CHEMBL2417551, “Structure-guided design of novel thiazolidine inhibitors of O-acetyl serine sulfhydrylase from Mycobacterium tuberculosis” (J Med Chem, 2013).

Experiments:
[1] = molecular target: O-acetylserine sulfhydrylase (Mycobacterium tuberculosis) (UniProt P9WP55); conditions: at 500 nM
Description: Inhibition of Mycobacterium tuberculosis N-terminal His-6-tagged recombinant CysK1 expressed in Escherichia coli BL21 (DE3) at 500 nM after 20 mins by spectrophotometric analysis

[2] = molecular target: T1, O-acetylserine sulfhydrylase (Mycobacterium tuberculosis, UniProt P9WP55)
Description: Inhibition of Mycobacterium tuberculosis N-terminal His-6-tagged recombinant CysK1 expressed in Escherichia coli BL21 (DE3) after 20 mins by spectrophotometric analysis

[3] = molecular target: O-acetylserine sulfhydrylase (Mycobacterium tuberculosis) (UniProt P9WP55)
[4] = Lipophilicity, log P of the compound; format: physicochemical; conditions: octanol/water
[5] = molecular target: O-acetylserine sulfhydrylase (Mycobacterium tuberculosis) (UniProt P9WP55); remark: listed apart in the source
[6] = molecular target: T1, O-acetylserine sulfhydrylase; experiment: Inhibition of Mycobacterium tuberculosis CysK1

SMILES	inhibition [1] [%]	IC50 [2] [nM]	further results
C=CCN1C(=O)/C(=C/c2ccc(O)cc2)S/C1=N\c1cccc(C(=O)O)c1	92.3	110	–
CCN1C(=O)/C(=C/c2ccc(OC)c(OC)c2)S/C1=N\c1cccc(C(=O)O)c1	90.9	56	–
COc1ccccc1/C=C1\S/C(=N\c2cccc(C(=O)O)c2)N(C)C1=O	96.9	160	–
COc1cc(/C=C2\S/C(=N\c3cccc(C(=O)O)c3)N(C)C2=O)cc(OC)c1OC	89.4	69.9	–
CN1C(=O)/C(=C/c2ccc(OCc3ccccc3)cc2)S/C1=N\c1cccc(C(=O)O)c1	91.5	25.6	–
COc1ccc(/C=C2\S/C(=N\c3cccc(C(=O)O)c3)N(C)C2=O)cc1OC	89.7	54.3	–
CN1C(=O)/C(=C/c2ccc(O)cc2)S/C1=N\c1cccc(C(=O)O)c1	92.6	62.6	–
CC(C)N1C(=O)/C(=C/c2ccc(O)cc2)S/C1=N\c1cccc(C(=O)O)c1	90.3	141	–
CN1C(=O)/C(=C/c2ccc(N(C)C)cc2)S/C1=N\c1cccc(C(=O)O)c1	93.4	37	–
CN1C(=O)/C(=C/c2ccc(F)cc2)S/C1=N\c1cccc(C(=O)O)c1	89.5	19	Ratio IC50 [3]: 150; logP [4]: 2.7; Ratio IC50 [5]: 5
CCCN1C(=O)/C(=C/c2ccc(O)cc2)S/C1=N\c1cccc(C(=O)O)c1	95.1	95.1	–
COc1ccc(/C=C2\S/C(=N\c3cccc(C(=O)O)c3)N(C)C2=O)cc1	88.6	33.9	–
CCN1C(=O)/C(=C/c2ccc(F)cc2)S/C1=N\c1cccc(C(=O)O)c1	68.3	–	–
COc1cc(/C=C2\S/C(=N\c3cccc(C(=O)O)c3)N(C)C2=O)ccc1O	87.5	60	–
CCN1C(=O)/C(=C/c2ccc(OC)cc2)S/C1=N\c1cccc(C(=O)O)c1	56.2	–	–
CCN1C(=O)/C(=C/c2cc(OC)c(OC)c(OC)c2)S/C1=N\c1cccc(C(=O)O)c1	37.4	–	–

SMILES	inhibition [1] [%]	IC50 [2] [nM]	further results
CC[C@H](C)[C@H](NC(=O)[C@H](CO)NC(=O)[C@H](Cc1ccccc1)NC(=O)[C@@H](N)CC(=O)O)C(=O)O	–	–	IC50 [6]: 2900 nM
CCN1C(=O)/C(=C/c2ccc(Br)cc2)S/C1=N\c1cccc(C(=O)O)c1	60.9	–	–
CCN1C(=O)/C(=C/c2ccc(Cl)cc2)S/C1=N\c1cccc(C(=O)O)c1	54.4	–	–
CN1C(=O)/C(=C/c2ccccc2OCC(=O)O)S/C1=N\c1cccc(C(=O)O)c1	–	–	IC50 [6]: 103 nM
CCN1C(=O)/C(=C/c2cccc(C(F)(F)F)c2)S/C1=N\c1cccc(C(=O)O)c1	26	–	–
CCN1C(=O)/C(=C/c2ccc(C(C)C)cc2)S/C1=N\c1cccc(C(=O)O)c1	49.6	–	–
CCN1C(=O)/C(=C/c2ccc(O)c(OC)c2)S/C1=N\c1cccc(C(=O)O)c1	75.6	–	–
CCCCN1C(=O)/C(=C/c2ccc(OCC(=O)OC)cc2)S/C1=N\c1cccc(C(=O)O)c1	16.4	–	–
CCN1C(=O)/C(=C/c2cccc(C)c2)S/C1=N\c1cccc(C(=O)O)c1	38.5	–	–
CN1C(=O)/C(=C/c2ccccn2)S/C1=N\c1cccc(C(=O)O)c1	64.4	–	–
CCN1C(=O)/C(=C/c2cnccc2C(F)(F)F)S/C1=N\c1cccc(C(=O)O)c1	46	–	–
Cc1ccccc1/C=C1\S/C(=N\c2cccc(C(=O)O)c2)N(C)C1=O	57.4	–	–
CCN1C(=O)/C(=C/c2ccc(O)cc2)S/C1=N\c1cccc(C(=O)O)c1	90.2	101	–
C=CCN1C(=O)/C(=C/c2ccccc2OCC(=O)OC)S/C1=N\c1cccc(C(=O)O)c1	38.6	–	–
CN1C(=O)/C(=C/c2ccccc2Cl)S/C1=N\c1cccc(C(=O)O)c1	54.6	–	–
CCN1C(=O)/C(=C/c2ccc([N+](=O)[O-])cc2)S/C1=N\c1cccc(C(=O)O)c1	32.7	–	–
